The values that follow come from patent publication US6780853B1, “Neuroactive steroids of the androstane and pregnane series” (priority 1995, dated 2004).

Each structure is given as a SMILES string. Structures can show the parent of a compound that is named as a salt.

The target in this experiment is GABA receptor complex (GRC). Description: [35S]TBPS binding in rat cerebral cortex P2 homogenate. The conditions noted are these: for IC50: concentration to inhibit 50% of control [35S]TBPS binding, 2 nM [35S]TBPS; for IMAX (maximum inhibition): maximum inhibition of [35S]TBPS binding. From the text:
To those skilled in the art, it is known that the modulation of [^35S]t-butylbicyclophosphorothionate ([^35S]TBPS) binding is a measure of the potency and efficacy of drugs acting at the GRC, which drugs may be of potential therapeutic value in the treatment of stress, anxiety, and seizure disorders (Squires, R. F., et al., Mol, Pharmacol., 23:326 (1983); Lawrence, L. J., et al., Biochem. Biophys. Res. Comm., 123:1130-1137 (1984); Wood, et al., Pharmacol, Exp. Ther., 231:572-576 (1984)). Several experiments were performed previously to determine the nature of the modulation of [^35S]TBPS as affected by neuroactive steroids. […] Furthermore, these compounds have high potency and efficacy at the GRC, with stringent structural requirements for such activity.
The procedures for performing this assay are fully discussed in: (1) Gee, K. W. et al., European Journal of Pharmacology, 136:419-423 (1987)); and (2) Gee, et al., Molecular Pharmacology 30:218 (1986). These procedures were performed as follows:
Brains from male Sprague-Dawley rats were removed immediately following sacrifice and the cerebral cortices dissected over ice. A P2 homogenate was prepared as previously described (Gee, et al., Molecular Pharmacology 30:218 (1986)). Briefly, the cortices were gently homogenized in 032 M sucrose followed by centrifugation at 1000×g for 10 minutes. The supernatant was collected and centrifuged at 9000×g for 20 minutes. The resultant P2 pellet was suspended as a 10% (original wet weight/volume) suspension in 50 mM Na/K phosphate buffer (pH 7.4) 200 mM NaCl to form the homogenate.
One hundred microliter […] aliquots of the P2 homogenate (0.5 milligrams (mg) protein) were incubated with 2 nanomolar (nM) [^35S]TBPS (70-110 curies/millimole; New England Nuclear, Boston, Mass.) in the presence or absence of the naturally occurring steroids or their synthetic derivatives to be tested. The tested compounds were dissolved in dimethylsulfoxide (Baker Chem. Co., Phillipsburg, N.J.) and added to the incubation mixture in 5 μL aliquots. The incubation mixture was brought to a final volume of 1 mL with buffer. Non-specific binding was defined as binding in the presence of […]. The effect and specificity of GABA (Sigma Chem. Co., St. Louis, Mo.) was evaluated by performing all assays in the presence of GABA plus (+)bicuculline (Sigma Chem. Co.). Incubations maintained at 25° C. for 90 minutes (steady state conditions) were terminated by rapid filtration through glass fiber filters (No. 32, Schleicher and Schuell, Keene, N.H.). Filter-bound radioactivity was quantitated by liquid scintillation spectrophotometry. Kinetic data and compound/[^35S]TBPS dose-response curves were analyzed by nonlinear regression using a computerized iterative procedure to obtain rate constants and IC50 (concentration of compound at which half-maximal inhibition of basal [^35S]TBPS binding occurs) values.
Various compounds were screened to determine their potential as modulators of [^35S]TBPS binding in vitro. These assays were performed in accordance with the above discussed procedures. Based on these assays, we have established the structure-activity requirements for their specific interaction at the GRC and their rank order potency and efficacy. Experimental data obtained in this assay for a number of 3α-hydroxypregnan-20-one derivatives is discussed in Gee, K. W. et al., European Journal of Pharmacology, 136:419-423 (1987) and in U.S. Pat. No. 5,232,917. Table 1 provides IC50 and maximum inhibition (IMAX) measurements for numerous compounds, including examples of compounds disclosed and claimed herein. IC50 is defined as concentration of compounds to inhibit 50% of control [^35S]TBPS binding. It is an indication of a compound's in vitro potency. Maximum inhibition is an indication of a compound's in vitro efficacy.

Broadly, the IC50 is the concentration at which inhibition is half-maximal. Read a low IC50 as inhibition by little substance. Consider `CC(C)O[C@H]1C[C@@]2(C)[C@@H](CC[C@H]3[C@@H]4CCC[C@@]4(C)CC[C@@H]32)C[C@@H]1O` [3α-Hydroxy-2β-isopropoxy-5α-androstane, 2β-Isopropoxy-3α-hydroxy-5α-androstane], for which the IC50 amounted to 456 nM and the “IMAX (maximum inhibition)” value amounted to 98%.
`CO[C@H]1CC[C@H]2[C@@H]3CC[C@H]4C[C@H](O)[C@@H](OC(C)C)C[C@]4(C)[C@H]3CC[C@]12C` [3α-Hydroxy-2β-isopropoxy-17β-methoxy-5α-androstane]: the IC50 was 26 nM and the “IMAX (maximum inhibition)” value came out at 100%.
`CCCOC1CC2(C)C(CCC3C2CCC2(C)C(C(=O)CSc4cc[n+](C)cc4)CCC32)CC1O` (stereo not drawn) [3α-Hydroxy-2β-propoxy-21-(pyrid-4-ylthio)-5α-pregnan-20-one N-methyl iodide]: the IC50 amounted to 126 nM and the “IMAX (maximum inhibition)” value is reported as 101%.
As to `CCCO[C@H]1C[C@@]2(C)[C@@H](CC[C@@H]3[C@@H]2CC[C@]2(C)[C@@H](C(=O)CS(=O)(=O)CCCS(=O)(=O)[O-])CC[C@@H]32)C[C@@H]1O.[Na+]` [3α-Hydroxy-2β-propoxy-21-sulfonylpropanesulfonate-5α-pregnan-20-one sodium salt], the IC50 was 1020 nM and the “IMAX (maximum inhibition)” value is 101%.
For `CC(=O)c1ccc(C#CC2(O)CCC3C(CCC4C3CCC3(C)CCCC43)C2)cc1` (stereo not drawn) [3α-Hydroxy-3β-(4′-acetylphenyl)ethynyl-5β-19-norandrostane] the same measures were 492 nM and 99%.
`COCC1(O)CCC2(C)C(CCC3C2CCC2(C)C(C(=O)CS(=O)(=O)c4ccc(N5CCCC5)cc4)CCC32)C1` (stereo not drawn) [3α-Hydroxy-3β-methoxymnethyl-21-(4′-pyrrolidinophenyl)sulfonyl-5α-pregnan-20-one]: the IC50 stood at 208 nM and the “IMAX (maximum inhibition)” value stood at 101%.
In the case of `C#CCO[C@H]1CC[C@H]2[C@@H]3CC[C@H]4C[C@](C)(O)CC[C@]4(C)[C@H]3CC[C@]12C` [3α-Hydroxy-3β-methyl-17β-(2-propynyloxy)-5α-androstane], the IC50 was 163 nM and the “IMAX (maximum inhibition)” value is 94%.
For `C[C@@]12CCC[C@H]1[C@@H]1CC[C@H]3C[C@H](O)CC[C@]3(C)[C@H]1CC2` [3α-Hydroxy-5α-androstane, reference compound] the same measures were 494 nM and 99%.
As for `C[C@@]12CCC[C@H]1[C@@H]1CC[C@@H]3C[C@H](O)CC[C@]3(C)[C@H]1CC2` [3α-Hydroxy-5β-androstane, reference compound], the IC50 is 815 nM and the “IMAX (maximum inhibition)” value is given as 83%.
As to `COC1CCC2C3CCC4CC(O)(C(F)(F)F)CCC4(C)C3CCC12C` (stereo not drawn) [3α-Hydroxy-17β-methoxy-3β-trifluoromethyl-5α-androstane], the IC50 amounted to 341 nM and the “IMAX (maximum inhibition)” value turned out to be 100%.
For `CO[C@H]1CC[C@H]2[C@@H]3CC[C@H]4C[C@](C)(O)CC[C@]4(C)[C@H]3CC[C@]12C` [3α-Hydroxy-17β-methoxy-3βmethyl-5α-androstane], the IC50 turned out to be 97 nM and the “IMAX (maximum inhibition)” value is given as 97%.
Regarding `CC12CCC(O)CC1CCC1C2CCC2(C)C(C(=O)COc3ccc[n+]([O-])c3)CCC12` (stereo not drawn) [3α-Hydroxy-21-(3′-pyridyl)oxy-5β-pregnan-20-one N-oxide], the IC50 was found to be 292 nM and the “IMAX (maximum inhibition)” value came out at 62%.
Take `C[C@]12CC[C@@H](O)C[C@H]1CC[C@@H]1[C@@H]2CC[C@]2(C)[C@@H](C(=O)CCc3ccncc3)CC[C@@H]12` [3α-Hydroxy-21-(4-pyridylmethyl)-5β-pregnan-20-one]: the IC50 turned out to be 187 nM and the “IMAX (maximum inhibition)” value was determined as 103%.
As to `C[n+]1ccc(SCC(=O)C2CCC3C4CCC5CC(O)CCC5(C)C4CCC23C)cc1` (stereo not drawn) [3α-Hydroxy-21-(4′-pyridyl)thio-5β-pregnan-20-one N-methyl io] [3α-hydroxy-21-(pyrid-4-ylthio)-5β-pregnan-20-one N-methyl iodide], the IC50 came to 263 nM and the “IMAX (maximum inhibition)” value turned out to be 53%.
For `C[C@]12CC[C@@H](O)C[C@H]1CC[C@@H]1[C@@H]2CC[C@]2(C)[C@@H](C(=O)COc3ccncc3)CC[C@@H]12` [3α-Hydroxy-21-(pyrid-4-yloxy)-5β-pregnan-20-one] the same measures were 45 nM and 76%.
For `C[n+]1ccc(SCC(=O)C2CCC3C4CCC5CC(O)CCC5(C)C4CCC23C)cc1` (stereo not drawn) [3α-Hydroxy-21-(pyrid-4-ylthio)-5α-pregnan-20 -one N-methyl i] [3α-Hydroxy-21-(pyrid-4-ylthio)-5α-pregnan-20-one N-methyl iodide], in that order: 188 nM and 100%.
For `CC12CCC(O)CC1CCC1C2CCC2(C)C(C(=O)CS(=O)(=O)O)CCC12` (stereo not drawn) [3α-Hydroxy-21-sulfonic acid-5β-pregnan-20-one 21-sodium salt], the IC50 turned out to be 732 nM and the “IMAX (maximum inhibition)” value worked out at 62%.
For `CCCOC1CC2(C)C(CCC3C2CCC2(C)C(C(=O)COc4ccc([N+](C)(C)C)cc4)CCC32)CC1O` (stereo not drawn) [3α-hydroxy-2β-propoxy-21-(4′-N,N,N-trimethylammoniumphenoxy)-5α-pregnan-20-one iodide salt], in that order: 129 nM and 92%.
`CCCO[C@H]1C[C@@]2(C)[C@@H](CC[C@@H]3[C@@H]2CC[C@]2(C)[C@@H](C(=O)CSc4ccncc4)CC[C@@H]32)C[C@@H]1O` [3α-hydroxy-2β-propoxy-21-(pyrid-4-ylthio)-5α-pregnan-20-one]: the IC50 came out at 14 nM and the “IMAX (maximum inhibition)” value came out at 98%.
Turning to `CCCO[C@H]1C[C@@]2(C)[C@@H](CC[C@@H]3[C@@H]2CC[C@]2(C)[C@@H](C(=O)CSCCCS(=O)(=O)[O-])CC[C@@H]32)C[C@@H]1O.[Na+]` [3α-hydroxy-2β-propoxy-21-thiopropanesulfonate-5α-pregnan-20-one sodium salt], the IC50 turned out to be 67 nM and the “IMAX (maximum inhibition)” value stood at 101%.
Regarding `COCC1(O)CCC2(C)C(CCC3C2CCC2(C)C(C(=O)CSc4ccncc4)CCC32)C1` (stereo not drawn) [3α-hydroxy-3β-methoxymethyl-21-(pyrid-4-ylthio)-5α-pregnan-20-one], the IC50 is 38 nM and the “IMAX (maximum inhibition)” value was 106%.
In the case of `C[n+]1cccc2cc(OCC(=O)C3CCC4C5CCC6CC(C)(O)CCC6(C)C5CCC34C)ccc21` (stereo not drawn) [3α-hydroxy-3β-methyl-21-(quinolin-6-yloxy)-5α-pregnan-20-one N-methyl iodide], the IC50 was 252 nM and the “IMAX (maximum inhibition)” value amounted to 102%.
For `C[C@@]1(O)CC[C@@]2(C)[C@@H](CC[C@@H]3[C@@H]2CC[C@]2(C)[C@@H](C(=O)COc4ccc5ncccc5c4)CC[C@@H]32)C1` [3α-hydroxy-3β-methyl-21-(quinolin-6-yloxy)-5α-pregnan-20-one], in that order: 76 nM and 96%.
For `CC(=O)c1ccc(C#C[C@@]2(O)CC[C@@]3(C)[C@H](CC[C@@H]4[C@@H]3CC[C@]3(C)[C@@H](C(=O)CSc5ccncc5)CC[C@@H]43)C2)cc1` [3β-(4′-acetylphenyl)ethynyl-3α-hydroxy-21-(pyrid-4ylthio)-5β-pregnan-20-one], in that order: 29 nM and 94%.
